Molecular target: T1, Type-2 angiotensin II receptor (Homo sapiens, UniProt P50052)
T1 sequence (P50052 whole entry): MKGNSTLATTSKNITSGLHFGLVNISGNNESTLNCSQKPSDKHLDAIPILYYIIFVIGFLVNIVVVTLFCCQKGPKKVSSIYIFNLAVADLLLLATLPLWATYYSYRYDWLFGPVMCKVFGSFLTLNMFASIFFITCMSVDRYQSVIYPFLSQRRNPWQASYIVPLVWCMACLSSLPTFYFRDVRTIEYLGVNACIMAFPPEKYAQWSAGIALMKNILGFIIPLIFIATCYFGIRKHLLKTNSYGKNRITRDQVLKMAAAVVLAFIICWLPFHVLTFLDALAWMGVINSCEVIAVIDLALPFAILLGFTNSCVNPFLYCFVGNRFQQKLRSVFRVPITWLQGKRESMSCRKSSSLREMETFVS
Test: Receptor Binding Assay: 120 μL membrane (5 mg protein/well) was incubated with 15 μL of [125I]-CGP42112A and 15 μL of compound at RT for 1.5 hrs.The binding reaction was stopped by rapid filtration through Unifilter GF/C plates (presoaked in 0.3% (v:v) BSA).Plate was washed three times with ice cold wash buffer.The filtration plates were dried at 37° C. overnight.50 μL of scintillation cocktail was added to each well.Radioactivity was determined using MicroBetaTriluxmicroplate scintillation counter.

IC50	SMILES
354 nM	CC(C)C#CCN(C)[C@H]1CCN(C(=O)C(c2ccccc2)c2ccccc2)[C@H](C(=O)O)C1
228 nM	O=C(O)[C@@H]1C[C@H](OCC#Cc2ccc(F)cc2)CCN1C(=O)C(c1ccccc1)c1ccccc1
76.7 nM	O=C(O)[C@@H]1C[C@H](OCc2ccccc2)CCN1C(=O)C(c1ccccc1)c1ccccc1
153 nM	CC(C)C#CCN(C)[C@@H]1CCN(C(=O)C(c2ccccc2)c2ccccc2)[C@H](C(=O)O)C1

— ChEMBL document CHEMBL5726136, “Heterocyclic compounds and methods for their use” (2017)
